Patent US20260297131A1, “COMPOSITIONS AND METHODS FOR PEPTIDE-BASED MODULATORS OF HUMAN PAPILLOMAVIRUS ONCOPROTEIN E6” (priority 2023, published 2026)
Square brackets hold non-standard residues; d marks the D form. Peptide text beside a SMILES is read from it. * marks the point of attachment. 2Nal = N[C@@H](Cc1ccc2ccccc2c1)C(=O)O; Gly(cPent) = N[C@H](C(=O)O)C1CCCC1; X1 = O=C(Cn1c2ccccc2c2ccccc21)*; Aad = N[C@@H](CCCC(=O)O)C(=O)O; Cba = N[C@@H](CC1CCC1)C(=O)O; Aib = CC(C)(N)C(=O)O; Dha = C=C(N)C(=O)O

Key:
[1] = biological target: T1, MBP-16E6 (Human papillomavirus 16, UniProt P03126, C104S/C118S/C147S/C87S); conditions: for mono-crosslink yield at 1 h: 1 μM MBP-16E6, 4 μM Dha peptide; for mono-crosslink in 2 h: 2 h at 37° C., 10 eq. to protein 16E6
[2] = biological target: T1, MBP-16E6; assay: biochemical
[3] = biological target: T1, MBP-16E6; conditions: for improvement of binding relative to peptide 18: apparent Ki; for Ratio to wild-type: N-terminal modified peptides, KD of WT divided by KD
[4] = biological target: SARS-CoV-2 3C-Like Protease; conditions: role: inhibitor; comparison drug; cited from earlier work
[5] = KD in nM, N-terminal modified peptides, competition mode, N = 2 or 3, SEM of curve fitting
[6] = competition KD, BLI competition, values in text

T1 sequence (P03126 whole entry C104S/C118S/C147S/C87S, looked up): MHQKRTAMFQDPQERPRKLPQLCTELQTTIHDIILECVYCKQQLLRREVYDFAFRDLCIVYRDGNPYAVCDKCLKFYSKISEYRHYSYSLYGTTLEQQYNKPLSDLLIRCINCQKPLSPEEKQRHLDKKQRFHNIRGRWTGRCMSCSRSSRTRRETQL

| Compound | mono-crosslink in 2 h [1] | Ki [2] | Ratio to wild-type [3] | Kd [2, 5] | other results |
| --- | --- | --- | --- | --- | --- |
| C=C(NC(=O)[C@H](CC(C)C)NC(=O)[C@H](CC1CCC1)NC(=O)[C@H](CCC(=O)O)NC(=O)C(C)(C)NC(=O)[C@H](CC(C)C)NC(=O)[C@@H](NC(=O)[C@H](Cc1ccc2ccccc2c1)NC(=O)[C@H](CCCC(=O)O)NC(=O)[C@H](C)NC(=O)[C@H](CO)NC(=O)[C@H](CCC(N)=O)NC(=O)[C@@H]1CCCN1C(=O)[C@@H](NC(=O)Cn1c2ccccc2c2ccccc21)[C@@H](C)CC)C1CCCC1)C(N)=O [18-Car-IPQSA-truncEER] (X1-IPQSA[Aad][2Nal][Gly(cPent)]L[Aib]E[Cba]L[Dha]-NH2) | quantitatively mono-crosslink | 0.044 ± 0.011 µM | – | – | mono-crosslink yield at 1 h [1]: 76% |
| C=C(NC(=O)[C@H](C)NC(=O)[C@H](C)NC(=O)[C@H](CCC(=O)O)NC(=O)C(C)(C)NC(=O)[C@H](C)NC(=O)[C@@H](NC(=O)[C@H](Cc1ccc2ccccc2c1)NC(=O)[C@@H](N)CCCC(=O)O)C1CCCC1)C(=O)N[C@@H](CCC(=O)O)C(=O)N[C@@H](CCC(=O)O)C(=O)N[C@@H](CCCNC(=N)N)C(N)=O [Peptide 18-3L3A] (H-[Aad][2Nal][Gly(cPent)]A[Aib]EAA[Dha]EER-NH2) | – | – | – | – | crosslinking to MBP-16E6 ([1]; LC-MS): no observable crosslinking; binding to MBP-16E6 ([3]; BLI): no observable binding |
| C=C(NC(=O)[C@H](CC(C)C)NC(=O)[C@H](CC1CCC1)NC(=O)[C@H](CCC(=O)O)NC(=O)C(C)(C)NC(=O)[C@H](CC(C)C)NC(=O)[C@@H](NC(=O)[C@H](Cc1ccc2ccccc2c1)NC(=O)[C@H](CCCC(=O)O)NC(=O)[C@H](C)NC(=O)[C@H](CO)NC(=O)[C@H](CCC(N)=O)NC(=O)[C@@H]1CCCN1C(=O)[C@@H](NC(=O)Cn1c2ccccc2c2ccccc21)[C@@H](C)CC)C1CCCC1)C(=O)N[C@@H](CCC(=O)O)C(=O)N[C@@H](CCC(=O)O)C(=O)N[C@@H](CCCNC(=N)N)C(N)=O [Peptide 18-Car-IPQSA] (X1-IPQSA[Aad][2Nal][Gly(cPent)]L[Aib]E[Cba]L[Dha]EER-NH2) | quantitatively mono-crosslink | 0.025 ± 0.0055 µM | – | – | mono-crosslink yield at 1 h [1]: 85%; improvement of binding relative to peptide 18 [3]: 7 fold |
| C=C(NC(=O)[C@H](CC(C)C)NC(=O)[C@H](CC1CCC1)NC(=O)[C@H](CCC(=O)O)NC(=O)C(C)(C)NC(=O)[C@H](CC(C)C)NC(=O)[C@@H](NC(=O)[C@H](Cc1ccc2ccccc2c1)NC(=O)[C@H](CCCC(=O)O)NC(=O)Cn1c2ccccc2c2ccccc21)C1CCCC1)C(=O)N[C@@H](CCC(=O)O)C(=O)N[C@@H](CCC(=O)O)C(=O)N[C@@H](CCCNC(=N)N)C(N)=O [Peptide 18-Car] (X1-[Aad][2Nal][Gly(cPent)]L[Aib]E[Cba]L[Dha]EER-NH2) | quantitatively mono-crosslink | 0.096 ± 0.033 µM | – | – | improvement of binding relative to peptide 18 [3]: 3 fold |
| C=C(NC(=O)[C@H](CC(C)C)NC(=O)[C@H](CC1CCC1)NC(=O)[C@H](CCC(=O)O)NC(=O)C(C)(C)NC(=O)[C@H](CC(C)C)NC(=O)[C@@H](NC(=O)[C@H](CCCCNC(=O)Cn1c2ccccc2c2ccccc21)NC(=O)[C@H](CCCC(=O)O)NC(C)=O)C1CCCC1)C(=O)N[C@@H](CCC(=O)O)C(=O)N[C@@H](CCC(=O)O)C(=O)N[C@@H](CCCNC(=N)N)C(N)=O [Peptide 18-Naf2Cab] (Ac-[Aad]K(X1)[Gly(cPent)]L[Aib]E[Cba]L[Dha]EER-NH2) | quantitatively mono-crosslink | 0.051 ± 0.011 µM | – | – | mono-crosslink yield at 1 h [1]: 83% |
| CC[C@H](C)[C@H](NC(=O)c1ccc2cc(O)ccc2c1)C(=O)N1CCC[C@H]1C(=O)N[C@@H](CCC(=O)O)C(=O)N[C@@H](CO)C(=O)N[C@@H](CO)C(=O)N[C@@H](CCC(=O)O)C(=O)N[C@@H](CC(C)C)C(=O)N[C@H](C(=O)N[C@@H](CC(C)C)C(=O)N[C@@H](CCC(N)=O)C(=O)N[C@@H](CCC(=O)O)C(=O)N[C@@H](CC(C)C)C(=O)N[C@@H](CC(C)C)C(=O)NCC(=O)N[C@@H](CCC(=O)O)C(=O)N[C@@H](CCC(=O)O)C(=O)N[C@@H](CCCNC(=N)N)C(=O)N[C@@H](CCCNC(=N)N)C(N)=O)[C@@H](C)O [Peptide N17] | – | – | 15.3 | 159 ± 47 nM | – |
| CC[C@H](C)[C@H](NC(=O)CCCc1ccc2ccc3cccc4ccc1c2c34)C(=O)N1CCC[C@H]1C(=O)N[C@@H](CCC(=O)O)C(=O)N[C@@H](CO)C(=O)N[C@@H](CO)C(=O)N[C@@H](CCC(=O)O)C(=O)N[C@@H](CC(C)C)C(=O)N[C@H](C(=O)N[C@@H](CC(C)C)C(=O)N[C@@H](CCC(N)=O)C(=O)N[C@@H](CCC(=O)O)C(=O)N[C@@H](CC(C)C)C(=O)N[C@@H](CC(C)C)C(=O)NCC(=O)N[C@@H](CCC(=O)O)C(=O)N[C@@H](CCC(=O)O)C(=O)N[C@@H](CCCNC(=N)N)C(=O)N[C@@H](CCCNC(=N)N)C(N)=O)[C@@H](C)O [Peptide N18] | – | – | 23 | 106 ± 27 nM | – |
| CC[C@H](C)[C@H](NC(=O)c1ccc2c3c(cccc13)CC2)C(=O)N1CCC[C@H]1C(=O)N[C@@H](CCC(=O)O)C(=O)N[C@@H](CO)C(=O)N[C@@H](CO)C(=O)N[C@@H](CCC(=O)O)C(=O)N[C@@H](CC(C)C)C(=O)N[C@H](C(=O)N[C@@H](CC(C)C)C(=O)N[C@@H](CCC(N)=O)C(=O)N[C@@H](CCC(=O)O)C(=O)N[C@@H](CC(C)C)C(=O)N[C@@H](CC(C)C)C(=O)NCC(=O)N[C@@H](CCC(=O)O)C(=O)N[C@@H](CCC(=O)O)C(=O)N[C@@H](CCCNC(=N)N)C(=O)N[C@@H](CCCNC(=N)N)C(N)=O)[C@@H](C)O [Peptide N19] | – | – | 44.4 | 55 ± 12 nM | Kd [2, 6]: < 70 nM |
| CC[C@H](C)[C@H](NC(=O)Cc1cc(=O)oc2cc(OC)ccc12)C(=O)N1CCC[C@H]1C(=O)N[C@@H](CCC(=O)O)C(=O)N[C@@H](CO)C(=O)N[C@@H](CO)C(=O)N[C@@H](CCC(=O)O)C(=O)N[C@@H](CC(C)C)C(=O)N[C@H](C(=O)N[C@@H](CC(C)C)C(=O)N[C@@H](CCC(N)=O)C(=O)N[C@@H](CCC(=O)O)C(=O)N[C@@H](CC(C)C)C(=O)N[C@@H](CC(C)C)C(=O)NCC(=O)N[C@@H](CCC(=O)O)C(=O)N[C@@H](CCC(=O)O)C(=O)N[C@@H](CCCNC(=N)N)C(=O)N[C@@H](CCCNC(=N)N)C(N)=O)[C@@H](C)O [Peptide N20] | – | – | 11.4 | 213 ± 47 nM | – |
| CC[C@H](C)[C@H](NC(=O)[C@@H](N)Cc1ccc(-c2ccccc2)cc1)C(=O)N1CCC[C@H]1C(=O)N[C@@H](CCC(=O)O)C(=O)N[C@@H](CO)C(=O)N[C@@H](CO)C(=O)N[C@@H](CCC(=O)O)C(=O)N[C@@H](CC(C)C)C(=O)N[C@H](C(=O)N[C@@H](CC(C)C)C(=O)N[C@@H](CCC(N)=O)C(=O)N[C@@H](CCC(=O)O)C(=O)N[C@@H](CC(C)C)C(=O)N[C@@H](CC(C)C)C(=O)NCC(=O)N[C@@H](CCC(=O)O)C(=O)N[C@@H](CCC(=O)O)C(=O)N[C@@H](CCCNC(=N)N)C(=O)N[C@@H](CCCNC(=N)N)C(N)=O)[C@@H](C)O [Peptide N21] | – | – | 1.7 | 1410 ± 757 nM | decrease in binding by change of terminal group ([3]; relative to fluorene-modified N1 / parent modification): ~ 27 fold; Kd [2, 6]: 1410 nM |
| CC[C@H](C)[C@H](NC(=O)[C@@H](N)CC1CCCCC1)C(=O)N1CCC[C@H]1C(=O)N[C@@H](CCC(=O)O)C(=O)N[C@@H](CO)C(=O)N[C@@H](CO)C(=O)N[C@@H](CCC(=O)O)C(=O)N[C@@H](CC(C)C)C(=O)N[C@H](C(=O)N[C@@H](CC(C)C)C(=O)N[C@@H](CCC(N)=O)C(=O)N[C@@H](CCC(=O)O)C(=O)N[C@@H](CC(C)C)C(=O)N[C@@H](CC(C)C)C(=O)NCC(=O)N[C@@H](CCC(=O)O)C(=O)N[C@@H](CCC(=O)O)C(=O)N[C@@H](CCCNC(=N)N)C(=O)N[C@@H](CCCNC(=N)N)C(N)=O)[C@@H](C)O [Peptide N22] | – | – | 1.4 | 1660 ± 705 nM | – |
| CC(C)(C)[C@H](NC(=O)C(F)(F)F)C(=O)N1C[C@H]2[C@@H]([C@H]1C(=O)N[C@H](C#N)C[C@@H]1CCNC1=O)C2(C)C [nirmatrelvir] | – | – | – | – | kinact/Ki [4]: 55000 M⁻¹ s⁻¹ |
